Test results taken from ChEMBL document CHEMBL1201862, “PubChem BioAssay data set” (2004).
Calls of active or inactive are those of the source.

Assays:
Genome polyprotein = Genome polyprotein (dengue virus type 2, UniProt P29990); test: Dengue-2 NS5 methyltransferase inhibitors, primary screen, biochemical, confirmation dose response (AID 588689); assay type: functional
Large T antigen = Large T antigen (Simian virus 40, UniProt P03070); assay type: functional, Betapolyomavirus macacae;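 further: Confirmatory-stage PubChem screen for compounds that inhibit SV40 T antigen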
[1] = molecular target: DNA (cytosine-5)-methyltransferase 1 (Homo sapiens, UniProt P26358); test: DNMT1 methyltransferase inhibitors, confirmation, biochemical, fluorescent molecular beacon (AID 602386); assay type: functional
[2] = molecular target: T1, Carboxy-terminal domain RNA polymerase II polypeptide A small phosphatase 1 (Homo sapiens, UniProt Q9GZU7); test: inhibitors of CTDSP1, concentration-response testing, biochemical assay, absorbance-based, actives from ultra-high-throughput screening (AID 540297); assay type: functional
T1 sequence (Q9GZU7 whole entry): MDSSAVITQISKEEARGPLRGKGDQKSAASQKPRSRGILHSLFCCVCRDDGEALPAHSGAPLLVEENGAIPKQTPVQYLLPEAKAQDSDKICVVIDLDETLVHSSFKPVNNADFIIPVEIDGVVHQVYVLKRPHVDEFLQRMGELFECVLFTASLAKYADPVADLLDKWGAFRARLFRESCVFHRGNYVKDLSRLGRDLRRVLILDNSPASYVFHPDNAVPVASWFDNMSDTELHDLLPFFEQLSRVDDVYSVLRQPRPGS

[3] = molecular target: FAD-linked sulfhydryl oxidase ALR (Homo sapiens, UniProt P55789); test: inhibitors of human ALR sulfhydryl oxidase, dose response, biochemical, H2O2 detection, luminescence, cherry-pick (AID 493248)
Melanocortin receptor 4 = Melanocortin receptor 4 (Homo sapiens, UniProt P32245); test: MC4R antagonist potency on cAMP, dose response, cell-based, TR-FRET, biased antagonists (AID 602298); assay type: functional;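 further: antagonist potency against agonist-stimulated cAMP production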
[4] = nonselective inhibitors of cellular cAMP signaling, dose response, counter-screen for MC4R biased antagonist project, cell-based, TR-FRET cAMP detection (AID 602305); assay type: functional;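 further: U2OS cells stimulated with forskolin near its EC80 as the cAMP inducer; potency is for inhibition of forskolin-stimulated cAMP signaling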
[5] = molecular target: T2, RNA-binding protein pos-1 (Caenorhabditis elegans, UniProt G5EF15); test: inhibitors of POS-1/mex-3 RNA binding, dose response, biochemical, fluorescence polarization (AID 1964);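 further: purified POS-1 fused to maltose binding protein made in E. coli; potency of compounds blocking POS-1 binding to fluorescent RNA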
T2 sequence (G5EF15 whole entry): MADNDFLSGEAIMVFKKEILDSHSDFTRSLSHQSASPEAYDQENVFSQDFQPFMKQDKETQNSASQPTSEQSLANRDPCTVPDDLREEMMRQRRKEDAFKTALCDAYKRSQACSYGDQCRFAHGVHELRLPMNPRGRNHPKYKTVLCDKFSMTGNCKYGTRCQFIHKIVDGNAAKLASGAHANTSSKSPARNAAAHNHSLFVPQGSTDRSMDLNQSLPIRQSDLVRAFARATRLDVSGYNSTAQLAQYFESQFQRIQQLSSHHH

Beta Lactamase = Beta Lactamase (Pseudomonas aeruginosa, UniProt Q932Y6); test: beta-lactamase reporter inhibitor potency, dose response, artefact control for TLR9-MyD88 binding inhibitor project, BLA reporter cells, FRET fluorescence (AID 588341); assay type: cell-based;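 further: cell based assay in CHO-K1 cells stably expressing beta-lactamase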
CHO = test: cytotoxicity in TLR9-MyD88 CHO cells, dose response, cytotoxicity control for TLR9-MyD88 binding inhibitor project, cell-based, luminescence (AID 588339); assay type: functional, hamster; conditions: Cricetulus griseus;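 further: CHO cells stably coexpressing TLR9 and MyD88 fusions from primary screen; compound exposure lasted 48 hours before viability readout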
Streptococcus = test: Group A Streptococcus viability loss, dose response, counter-screen for streptokinase expression inhibitor project, luminescence, BacTiterGlo (AID 1915); assay type: functional, organism-based;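 further: potency for reduction of bacterial viability or growth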
Streptokinase A = molecular target: T3, Streptokinase A (Streptococcus pyogenes serotype M1, UniProt P10520); test: S. pyogenes streptokinase expression inhibitors, potency, dose response, plasminogen activation absorbance, OD405 (AID 1914); assay type: functional, Streptococcus pyogenes M1 GAS;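 further: secreted streptokinase activity via plasminogen activation per viability signal from cell pellet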
T3 sequence (P10520 whole entry): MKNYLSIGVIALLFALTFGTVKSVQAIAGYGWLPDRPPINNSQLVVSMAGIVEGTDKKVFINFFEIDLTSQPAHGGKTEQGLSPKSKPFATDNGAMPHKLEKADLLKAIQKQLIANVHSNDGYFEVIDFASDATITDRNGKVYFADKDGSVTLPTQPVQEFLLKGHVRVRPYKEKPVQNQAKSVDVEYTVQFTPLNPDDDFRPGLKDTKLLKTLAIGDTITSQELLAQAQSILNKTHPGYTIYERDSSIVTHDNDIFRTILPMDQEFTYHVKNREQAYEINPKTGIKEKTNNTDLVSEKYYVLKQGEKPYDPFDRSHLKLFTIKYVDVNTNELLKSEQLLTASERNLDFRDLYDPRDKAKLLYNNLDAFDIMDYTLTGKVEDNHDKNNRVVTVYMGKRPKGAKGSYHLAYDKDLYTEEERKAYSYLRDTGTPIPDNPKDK

[6] = molecular target: T4, Zinc finger protein mex-5 (Caenorhabditis elegans, UniProt Q9XUB2); test: MEX-5/TCR-2 RNA interaction inhibitors, dose response, biochemical, C. elegans, fluorescence polarization (AID 1960)
T4 sequence (Q9XUB2 whole entry): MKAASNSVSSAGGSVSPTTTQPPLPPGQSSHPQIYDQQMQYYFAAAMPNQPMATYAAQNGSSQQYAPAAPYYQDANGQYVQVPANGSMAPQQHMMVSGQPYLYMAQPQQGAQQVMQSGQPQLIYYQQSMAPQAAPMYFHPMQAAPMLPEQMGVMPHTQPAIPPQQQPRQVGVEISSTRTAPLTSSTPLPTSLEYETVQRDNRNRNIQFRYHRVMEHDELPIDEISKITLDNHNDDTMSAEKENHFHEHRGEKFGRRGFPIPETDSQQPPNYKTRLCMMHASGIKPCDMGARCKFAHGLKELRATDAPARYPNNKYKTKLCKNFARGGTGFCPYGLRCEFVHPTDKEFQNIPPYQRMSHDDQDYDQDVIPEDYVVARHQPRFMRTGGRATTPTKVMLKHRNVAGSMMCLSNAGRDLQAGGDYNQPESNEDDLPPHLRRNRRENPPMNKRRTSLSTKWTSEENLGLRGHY

[7] = HEK293T cell cytotoxicity, dose response, cytotoxicity control for HIV Vif inhibitor project, cherry-picks (AID 652208); assay type: functional, cell-based
[8] = molecular target: T5, High affinity choline transporter 1 (Homo sapiens, UniProt Q9GZV3); test: CHT inhibitors, dose response, cell-based, 5-point CRC, membrane potential dye (AID 504840); assay type: functional
T5 sequence (Q9GZV3 whole entry): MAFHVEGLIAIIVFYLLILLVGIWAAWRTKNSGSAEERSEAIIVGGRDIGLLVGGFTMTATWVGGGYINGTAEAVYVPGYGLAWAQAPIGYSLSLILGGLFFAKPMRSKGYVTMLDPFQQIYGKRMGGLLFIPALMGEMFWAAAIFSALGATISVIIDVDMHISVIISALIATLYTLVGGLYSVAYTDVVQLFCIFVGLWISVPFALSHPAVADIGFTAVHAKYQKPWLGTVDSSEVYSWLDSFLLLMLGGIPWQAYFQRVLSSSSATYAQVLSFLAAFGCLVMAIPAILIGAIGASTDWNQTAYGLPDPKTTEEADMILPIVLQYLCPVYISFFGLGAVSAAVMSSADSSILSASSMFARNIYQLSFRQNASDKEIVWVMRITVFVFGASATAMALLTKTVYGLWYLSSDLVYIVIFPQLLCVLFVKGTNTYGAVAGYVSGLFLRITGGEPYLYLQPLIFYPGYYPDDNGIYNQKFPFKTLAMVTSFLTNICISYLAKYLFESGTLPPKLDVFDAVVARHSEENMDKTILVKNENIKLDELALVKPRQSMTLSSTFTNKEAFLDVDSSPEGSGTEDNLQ

[9] = molecular target: T5, High affinity choline transporter 1; test: CHT inhibitors, dose response, cell-based, 10-point CRC, membrane potential dye (AID 588401); assay type: functional;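 further: membrane potential dye fluorescence of choline-evoked depolarization via CHT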
Coagulation factor XII = molecular target: T6, Coagulation factor XII (Homo sapiens, UniProt P00748); assay type: functional;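 further: activated factor XIIa alpha cleaving a fluorogenic AMC peptide substrate; inhibitor potency from loss of enzyme activity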
T6 sequence (P00748 whole entry): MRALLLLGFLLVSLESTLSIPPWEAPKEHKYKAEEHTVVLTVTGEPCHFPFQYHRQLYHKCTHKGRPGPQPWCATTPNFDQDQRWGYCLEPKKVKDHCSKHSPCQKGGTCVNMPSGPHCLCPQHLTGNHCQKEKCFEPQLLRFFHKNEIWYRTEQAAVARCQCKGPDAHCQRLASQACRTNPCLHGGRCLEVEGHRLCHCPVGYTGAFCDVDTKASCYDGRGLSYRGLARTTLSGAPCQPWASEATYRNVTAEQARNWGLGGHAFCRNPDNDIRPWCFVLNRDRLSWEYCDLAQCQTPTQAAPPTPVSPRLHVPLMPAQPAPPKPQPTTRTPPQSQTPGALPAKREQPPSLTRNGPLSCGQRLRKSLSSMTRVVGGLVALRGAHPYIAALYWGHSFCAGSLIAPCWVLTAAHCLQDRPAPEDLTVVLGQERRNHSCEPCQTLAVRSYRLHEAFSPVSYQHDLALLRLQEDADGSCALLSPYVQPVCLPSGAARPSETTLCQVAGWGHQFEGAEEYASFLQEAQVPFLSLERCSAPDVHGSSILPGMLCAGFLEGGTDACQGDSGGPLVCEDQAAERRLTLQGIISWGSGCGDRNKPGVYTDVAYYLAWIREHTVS

H9c2 = test: cells; assay type: functional, cell-based; conditions: Rattus norvegicus, H9c2, Myocardium;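 further: confirmatory concentration-response retest of ultra-high-throughput screening hits for modulation of myocardial damage; cell death induced by hydrogen peroxide oxidative stress; compound pretreatment for 60 min then peroxide exposure for 2 h; potency is for protecting the cells against peroxide damage rather than for killing them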
[10] = molecular target: T7, Apoptotic protease-activating factor 1 (Homo sapiens, UniProt O14727); assay type: functional
T7 sequence (O14727 whole entry): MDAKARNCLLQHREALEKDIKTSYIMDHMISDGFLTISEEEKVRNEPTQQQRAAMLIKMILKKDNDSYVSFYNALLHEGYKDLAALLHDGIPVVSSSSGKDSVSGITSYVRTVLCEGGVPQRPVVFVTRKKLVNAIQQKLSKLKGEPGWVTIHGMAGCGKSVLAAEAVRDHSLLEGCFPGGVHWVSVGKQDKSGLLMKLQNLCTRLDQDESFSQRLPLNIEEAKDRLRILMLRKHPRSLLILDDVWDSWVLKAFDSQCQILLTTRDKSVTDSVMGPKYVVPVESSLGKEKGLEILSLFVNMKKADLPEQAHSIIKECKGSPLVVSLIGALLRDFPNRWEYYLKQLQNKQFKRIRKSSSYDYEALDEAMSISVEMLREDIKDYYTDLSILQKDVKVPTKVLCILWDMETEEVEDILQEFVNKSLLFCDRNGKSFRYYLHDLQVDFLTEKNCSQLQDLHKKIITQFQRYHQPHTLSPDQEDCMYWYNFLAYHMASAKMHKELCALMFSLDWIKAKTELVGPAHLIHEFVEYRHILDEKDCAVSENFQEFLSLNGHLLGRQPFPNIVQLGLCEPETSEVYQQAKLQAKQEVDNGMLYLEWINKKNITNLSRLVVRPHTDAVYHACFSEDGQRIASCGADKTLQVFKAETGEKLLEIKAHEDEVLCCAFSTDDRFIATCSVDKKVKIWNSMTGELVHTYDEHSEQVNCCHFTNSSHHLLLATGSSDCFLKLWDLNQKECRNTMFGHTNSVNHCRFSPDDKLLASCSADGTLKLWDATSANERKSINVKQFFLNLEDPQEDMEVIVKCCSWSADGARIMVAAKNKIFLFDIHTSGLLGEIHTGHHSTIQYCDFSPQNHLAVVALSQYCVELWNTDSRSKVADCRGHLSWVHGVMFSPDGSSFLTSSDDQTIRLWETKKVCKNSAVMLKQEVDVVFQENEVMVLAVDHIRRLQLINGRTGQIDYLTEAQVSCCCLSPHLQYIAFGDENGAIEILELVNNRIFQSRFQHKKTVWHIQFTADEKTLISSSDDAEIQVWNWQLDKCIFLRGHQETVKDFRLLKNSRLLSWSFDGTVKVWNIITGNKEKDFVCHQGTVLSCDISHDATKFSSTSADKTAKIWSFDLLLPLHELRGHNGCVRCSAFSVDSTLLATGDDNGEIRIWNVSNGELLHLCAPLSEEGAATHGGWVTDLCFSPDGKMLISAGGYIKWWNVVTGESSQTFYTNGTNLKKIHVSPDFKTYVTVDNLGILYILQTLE

[11] = molecular target: Ras and Rab interactor 1/Tyrosine-protein kinase ABL1 (Homo sapiens, UniProt P00519+Q13671); assay type: functional;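 further: biochemical TR-FRET dose-response test measuring inhibition of binding between Rin1 and Abl proteins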
[12] = molecular target: 72 kDa type IV collagenase (Homo sapiens, UniProt P08253); test: Dose Response validation of uHTS RPN11 inhibitor hits using a MMP-2 Fluorescence assay.; assay type: functional
Prothrombin = Prothrombin (Bos taurus, UniProt P00735); test: thrombin inhibition, dose response, biochemical, fluorescence polarization, uHTS hits (AID 602369); assay type: functional
[13] = molecular target: 26S proteasome non-ATPase regulatory subunit 14 (Homo sapiens, UniProt O00487); test: inhibition of proteasome subunit RPN11 – biochemical, fluorescence polarization, uHTS hits, confirmation (AID 602368); assay type: functional
Sequence of 26S proteasome non-ATPase regulatory subunit 14 (O00487 whole entry): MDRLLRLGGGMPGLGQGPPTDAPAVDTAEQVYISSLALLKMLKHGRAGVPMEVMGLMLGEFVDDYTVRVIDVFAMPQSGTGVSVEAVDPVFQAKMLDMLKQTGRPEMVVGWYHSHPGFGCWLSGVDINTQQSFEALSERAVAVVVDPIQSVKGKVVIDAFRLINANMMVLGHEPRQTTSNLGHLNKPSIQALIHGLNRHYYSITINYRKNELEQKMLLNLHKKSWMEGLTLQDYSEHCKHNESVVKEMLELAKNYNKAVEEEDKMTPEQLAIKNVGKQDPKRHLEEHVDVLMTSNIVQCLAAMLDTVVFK

Sequence of Melanocortin receptor 4 (P32245 whole entry): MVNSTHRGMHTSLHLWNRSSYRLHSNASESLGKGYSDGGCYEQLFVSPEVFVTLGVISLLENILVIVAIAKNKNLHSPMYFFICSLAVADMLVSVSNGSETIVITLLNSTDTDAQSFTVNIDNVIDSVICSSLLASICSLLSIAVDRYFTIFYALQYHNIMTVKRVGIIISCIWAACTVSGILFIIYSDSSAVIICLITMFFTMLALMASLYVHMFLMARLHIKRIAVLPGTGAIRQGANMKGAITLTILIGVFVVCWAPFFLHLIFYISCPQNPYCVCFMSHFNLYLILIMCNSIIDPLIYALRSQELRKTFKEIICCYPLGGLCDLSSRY
Sequence of Beta Lactamase (Q932Y6 whole entry, the tested form may be a part): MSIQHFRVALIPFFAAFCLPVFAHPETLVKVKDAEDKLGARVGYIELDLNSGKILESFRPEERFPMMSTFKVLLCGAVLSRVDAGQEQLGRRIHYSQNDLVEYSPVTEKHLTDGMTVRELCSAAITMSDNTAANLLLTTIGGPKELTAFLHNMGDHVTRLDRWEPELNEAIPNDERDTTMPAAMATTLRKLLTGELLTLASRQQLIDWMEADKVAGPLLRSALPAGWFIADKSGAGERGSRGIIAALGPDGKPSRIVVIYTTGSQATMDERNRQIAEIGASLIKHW
Sequence of FAD-linked sulfhydryl oxidase ALR (P55789 whole entry): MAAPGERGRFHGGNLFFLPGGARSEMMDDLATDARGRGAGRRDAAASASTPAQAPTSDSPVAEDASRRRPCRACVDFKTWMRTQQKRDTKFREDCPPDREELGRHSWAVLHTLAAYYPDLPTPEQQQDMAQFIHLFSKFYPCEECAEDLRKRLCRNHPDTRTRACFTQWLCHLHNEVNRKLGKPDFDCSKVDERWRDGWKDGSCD
Sequence of DNA (cytosine-5)-methyltransferase 1 (P26358 whole entry, the tested form may be a part): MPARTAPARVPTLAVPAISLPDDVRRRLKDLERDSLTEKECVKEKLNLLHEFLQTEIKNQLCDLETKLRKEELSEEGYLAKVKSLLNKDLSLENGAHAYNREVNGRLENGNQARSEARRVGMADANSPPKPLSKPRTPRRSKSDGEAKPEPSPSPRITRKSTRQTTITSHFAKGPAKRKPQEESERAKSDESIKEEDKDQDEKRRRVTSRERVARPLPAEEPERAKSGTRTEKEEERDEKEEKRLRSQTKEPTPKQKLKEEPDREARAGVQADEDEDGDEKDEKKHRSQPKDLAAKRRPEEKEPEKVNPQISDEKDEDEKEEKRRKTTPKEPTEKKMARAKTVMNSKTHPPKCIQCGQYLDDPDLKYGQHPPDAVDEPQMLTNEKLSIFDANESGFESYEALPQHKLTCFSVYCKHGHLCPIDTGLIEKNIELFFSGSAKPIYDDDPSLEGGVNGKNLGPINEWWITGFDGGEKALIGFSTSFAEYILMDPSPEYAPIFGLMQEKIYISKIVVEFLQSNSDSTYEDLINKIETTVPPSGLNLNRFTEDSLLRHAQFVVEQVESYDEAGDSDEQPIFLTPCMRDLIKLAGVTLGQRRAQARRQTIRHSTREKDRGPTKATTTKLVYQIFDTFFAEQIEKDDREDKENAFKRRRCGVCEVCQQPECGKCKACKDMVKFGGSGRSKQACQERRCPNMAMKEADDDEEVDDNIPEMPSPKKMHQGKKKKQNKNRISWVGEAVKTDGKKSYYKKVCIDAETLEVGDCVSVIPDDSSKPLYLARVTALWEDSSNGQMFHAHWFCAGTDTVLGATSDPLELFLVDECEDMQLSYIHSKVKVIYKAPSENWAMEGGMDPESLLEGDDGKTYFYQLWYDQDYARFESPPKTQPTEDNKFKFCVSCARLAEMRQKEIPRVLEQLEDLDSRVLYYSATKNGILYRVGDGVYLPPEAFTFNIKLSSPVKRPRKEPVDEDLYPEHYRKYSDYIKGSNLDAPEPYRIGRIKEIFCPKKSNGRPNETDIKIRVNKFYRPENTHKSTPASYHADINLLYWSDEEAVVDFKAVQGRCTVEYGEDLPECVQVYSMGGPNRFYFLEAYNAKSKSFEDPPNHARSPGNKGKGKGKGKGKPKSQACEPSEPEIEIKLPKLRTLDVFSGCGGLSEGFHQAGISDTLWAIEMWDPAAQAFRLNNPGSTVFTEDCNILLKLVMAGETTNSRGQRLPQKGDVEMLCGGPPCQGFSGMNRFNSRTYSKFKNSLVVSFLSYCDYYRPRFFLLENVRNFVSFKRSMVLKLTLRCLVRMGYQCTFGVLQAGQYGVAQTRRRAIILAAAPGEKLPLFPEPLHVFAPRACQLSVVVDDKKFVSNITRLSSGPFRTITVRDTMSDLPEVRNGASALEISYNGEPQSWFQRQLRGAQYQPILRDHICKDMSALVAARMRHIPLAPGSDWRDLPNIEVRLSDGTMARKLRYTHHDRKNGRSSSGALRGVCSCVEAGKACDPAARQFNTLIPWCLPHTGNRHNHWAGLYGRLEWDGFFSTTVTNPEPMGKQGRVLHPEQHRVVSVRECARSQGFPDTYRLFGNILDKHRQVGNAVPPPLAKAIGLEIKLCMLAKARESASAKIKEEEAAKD
Sequence of Genome polyprotein (P29990 2492-3391 limits assumed): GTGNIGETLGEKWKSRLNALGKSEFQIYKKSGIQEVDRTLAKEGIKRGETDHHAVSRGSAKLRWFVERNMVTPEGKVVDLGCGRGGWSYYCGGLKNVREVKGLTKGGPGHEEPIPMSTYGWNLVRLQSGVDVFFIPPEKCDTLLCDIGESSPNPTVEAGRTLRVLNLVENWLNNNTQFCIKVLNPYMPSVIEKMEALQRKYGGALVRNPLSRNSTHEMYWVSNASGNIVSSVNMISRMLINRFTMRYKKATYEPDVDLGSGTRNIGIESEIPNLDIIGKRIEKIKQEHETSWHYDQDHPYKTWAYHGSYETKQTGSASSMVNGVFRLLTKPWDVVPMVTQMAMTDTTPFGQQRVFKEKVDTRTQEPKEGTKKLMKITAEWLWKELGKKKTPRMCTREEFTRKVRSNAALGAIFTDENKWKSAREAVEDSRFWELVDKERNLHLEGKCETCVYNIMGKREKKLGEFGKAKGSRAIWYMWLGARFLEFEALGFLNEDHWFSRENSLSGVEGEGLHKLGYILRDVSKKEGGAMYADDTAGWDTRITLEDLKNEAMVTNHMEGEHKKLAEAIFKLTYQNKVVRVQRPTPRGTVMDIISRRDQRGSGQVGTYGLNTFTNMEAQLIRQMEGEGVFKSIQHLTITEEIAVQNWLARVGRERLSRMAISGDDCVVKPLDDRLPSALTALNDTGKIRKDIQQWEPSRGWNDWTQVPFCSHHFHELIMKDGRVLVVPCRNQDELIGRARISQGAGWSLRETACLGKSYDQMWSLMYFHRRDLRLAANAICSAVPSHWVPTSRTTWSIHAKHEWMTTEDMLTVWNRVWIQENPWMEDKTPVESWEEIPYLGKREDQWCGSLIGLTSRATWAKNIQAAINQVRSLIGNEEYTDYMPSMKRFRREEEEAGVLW
Sequence of Large T antigen (P03070 whole entry): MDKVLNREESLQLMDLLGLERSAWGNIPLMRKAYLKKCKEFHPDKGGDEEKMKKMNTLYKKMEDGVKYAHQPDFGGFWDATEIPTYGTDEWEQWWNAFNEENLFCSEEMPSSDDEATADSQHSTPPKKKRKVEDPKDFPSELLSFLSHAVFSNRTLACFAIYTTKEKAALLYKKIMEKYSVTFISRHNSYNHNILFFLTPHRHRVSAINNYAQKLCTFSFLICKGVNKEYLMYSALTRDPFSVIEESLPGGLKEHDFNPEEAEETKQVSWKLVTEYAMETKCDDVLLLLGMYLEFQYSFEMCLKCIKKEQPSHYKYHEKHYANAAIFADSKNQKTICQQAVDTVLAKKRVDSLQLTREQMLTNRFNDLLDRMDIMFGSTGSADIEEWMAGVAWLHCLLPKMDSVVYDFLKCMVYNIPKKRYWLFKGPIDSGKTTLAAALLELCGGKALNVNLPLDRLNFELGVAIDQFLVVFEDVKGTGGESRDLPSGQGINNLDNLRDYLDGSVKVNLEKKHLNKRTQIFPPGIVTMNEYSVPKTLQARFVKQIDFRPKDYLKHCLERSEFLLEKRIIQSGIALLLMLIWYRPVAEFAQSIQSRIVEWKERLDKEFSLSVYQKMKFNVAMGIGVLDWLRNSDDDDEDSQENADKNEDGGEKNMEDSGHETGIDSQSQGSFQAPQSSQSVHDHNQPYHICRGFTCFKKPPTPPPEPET
Sequence of 72 kDa type IV collagenase (P08253 whole entry): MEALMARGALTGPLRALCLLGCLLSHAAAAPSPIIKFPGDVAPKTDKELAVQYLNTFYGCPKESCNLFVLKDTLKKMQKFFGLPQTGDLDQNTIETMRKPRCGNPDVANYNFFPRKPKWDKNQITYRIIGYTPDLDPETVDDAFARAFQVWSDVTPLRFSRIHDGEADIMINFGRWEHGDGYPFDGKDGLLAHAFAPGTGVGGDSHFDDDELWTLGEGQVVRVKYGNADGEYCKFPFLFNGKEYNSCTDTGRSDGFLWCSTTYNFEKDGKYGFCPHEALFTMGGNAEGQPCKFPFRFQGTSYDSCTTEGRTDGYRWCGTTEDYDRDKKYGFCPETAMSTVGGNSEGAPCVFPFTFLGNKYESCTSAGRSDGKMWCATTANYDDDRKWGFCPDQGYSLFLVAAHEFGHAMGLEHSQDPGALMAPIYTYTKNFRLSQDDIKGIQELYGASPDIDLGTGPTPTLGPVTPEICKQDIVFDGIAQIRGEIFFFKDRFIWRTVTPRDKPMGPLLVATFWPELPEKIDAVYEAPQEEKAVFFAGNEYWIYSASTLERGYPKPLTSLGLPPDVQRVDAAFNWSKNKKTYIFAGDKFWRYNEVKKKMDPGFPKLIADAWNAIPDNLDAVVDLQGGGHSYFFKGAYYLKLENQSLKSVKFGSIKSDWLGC

O=C1NN(c2ccccc2)C(=O)/C1=C/c1ccc(-c2ccc(C(=O)O)cc2)o1
IC50 (Genome polyprotein): > 100 µM (active)
IC50 (Large T antigen): 20.6 µM (active)
IC50 [1]: 10.2 µM (active)
IC50 [2]: 4.57 µM (active)
AC50 [3]: 0.11 µM (active)

COC(=O)C(CC(C)C)NC(=O)/C=C/c1ccc(Cl)cc1 (stereo unspecified)
IC50 (Melanocortin receptor 4): > 64.6 µM (inactive)
IC50 [4]: > 64.6 µM (inactive)

Nc1c(C(=O)Nc2nc3ccccc3s2)sc2nc(-c3cccs3)ccc12
EC50 [5]: 19.2 µM (inconclusive)
IC50 (Beta Lactamase): 3.93 µM (active)
IC50 (CHO): 5.51 µM (active)
EC50 (Streptococcus): 109 µM (active)
EC50 (Streptokinase A): > 150 µM (not active)
EC50 [6]: > 150 µM (inconclusive)
AC50 [7]: 7.27 µM (active)

N#C/C(=C(/O)c1ccccc1F)c1nc2cc(C(F)(F)F)ccc2s1
IC50 [8]: 10 µM (active)
IC50 [9]: 6.31 µM (active)

COc1ccc(CCn2c(C)cc(C(=O)CCl)c2C)cc1OC
IC50 (Coagulation factor XII): > 50 µM (inactive)
IC50 (Melanocortin receptor 4): > 64.6 µM (inactive)
IC50 [4]: > 64.6 µM (inactive)

Cc1ccc(-c2nn3c(-c4ccco4)nnc3c3ccccc23)cc1S(=O)(=O)NCC1CCCO1 (stereo unspecified)
IC50 (H9c2): > 79 µM (inactive)
IC50 [10]: 5.73 µM (active)
IC50 [11]: > 73.5 µM (inactive)

CCN1CCN(c2ncnc3scc(-c4ccc(C)cc4)c23)CC1
IC50 [8]: 2.09 µM (active)
IC50 [9]: 1.5 µM (active)

CC1(C(=O)N/N=C/c2c(F)c(F)c(F)c(F)c2F)CC1(Cl)Cl (stereo unspecified)
IC50 (Melanocortin receptor 4): > 7.17 µM (active)
IC50 [4]: > 64.6 µM (inactive)

O=[N+]([O-])c1ccc(N/N=C/c2c[nH]c3ccccc23)cc1
IC50 (Beta Lactamase): 10.2 µM (inactive)
IC50 (CHO): 47.2 µM (inactive)
IC50 [12]: > 100 µM (inactive)
IC50 (Prothrombin): 2.05 µM (active)
IC50 [13]: 1.77 µM (active)
